Where a name gives a salt, the structure may show the parent alone. Read-outs that look alike come from different tables or passages of the source.
Key:
[1] = target: Vacuolar ATPase in bovine chromaffin cells membranes (BCG) (Bos taurus, UniProt P23956+Q29466); assay: Vacuolar ATPase inhibition in bovine chromaffin cells membranes (BCG); format: biochemical; conditions: read-out: ATPase activity (IC50) BCG; bovine chromaffin cell membranes
Procedure: Inhibition of bafilomycin sensitive ATPase activity is assayed by measuring the release of inorganic phosphate during 30 minutes of incubation, at 37° C., of the human osteoclastoma microsomal fraction in 96-well plates. The reaction medium contains 1 mM ATP, 10 mM Hepes-Tris buffer pH 8, 50 mM KCl, 5 μM valinomycin, 5 μM nigericin, 1 mM CDTA-Tris, 100 μM ammonium molybdate, 0.2 M sucrose and the microsomal fraction (20 μg protein/ml). The reaction is initiated by adding MgSO4 and terminated, after 30 minutes, by adding 4 volumes of the reagent malachite green, prepared according to Chan K., Anal. Biochem. 157, 375-380, 1986.
1.2 Determination of Vacuolar ATpase Inhibition in the Bovine Chromaffin Cells Membranes (BCG)
About 20 adrenal glands (Cidon S., J. Biol. Chem. 258, 2892-2898, 1983) are removed from healthy bovines; the medulla is quickly separated from the cortex, which is discarded. The medulla is homogenised at 4° C. with a suitable medium at pH 7.5, then filtered. The remaining solid material is further homogenised, filtered and recombined with the preceding filtrate, resuspended and centrifuged at 1000 g for 15 minutes; the supernatant obtained is centrifuged at 10000 g for 20 minutes. The resultant pellet is resuspended and stratified through a sucrose gradient formed of a lower part of 15 ml 1.5 M sucrose and an upper part of 10 ml 1.2 M sucrose. After overnight centrifugation at 4° C. with a SW28 rotor at 20000 rpm, the chromaffiln cells sediment into a pellet. This latter is resuspended, centrifuged at 3000 g for 10 minutes, and the supernatant obtained is centrifuged at 200000 g for 60 minutes. The pellet is then resuspended in 4 ml of a suitable medium containing 0.2 μg/ml pepstatin A and 0.4 μg/ml leupeptin and stored under liquid nitrogen.
The method for ATPase inhibition assay is the same as that followed for the osteoclastoma.

HT29 cells [2] = assay: Antiproliferative activity, 72 h treatment, SRB assay, HT29; format: cell-based, human
Procedure: (§1) HT29 and HT29/Mit (line obtained by prolonged exposure to mitoxantrone, and characterised by overexpression of BCRP, which confers cross resistance to topotecan, irinotecan and to its metabolite SN38): maintained in McCoy 5A medium+10% FCS.
(§2) 2.2 Scheme of the Antiproliferative Activity Experiment (Treatment Time: 72 Hours)
(§3) The cells (HT29 and HT29/Mit: 40,000 cells/ml, LoVo, LoVo/Dx and HCT116: 50,000 cells/ml) are seeded in 100 μl of the respective culture media in 96-well plates. 24 hours after seeding, an aliquot (10 μl) of drug at the various concentrations is added. In the samples in which the effect of the combination of two compounds is to be tested the inhibitor is added immediately before the cytotoxic. For each dose or combination of doses/drugs the effect of the treatment is determined in 4-8 replicates.
(§4) After 72 hours of treatment the antiproliferative effect is evaluated using the sulforhodamine B (SRB) assay: the cells are fixed by adding 25 μl of 50% TCA to each well and left for 1 hour at 4° C. After washing them with water and allowing them to dry, 100 μl of 0.4% SRB in 1% acetic acid are added and left for 30 minutes at room temperature. After 4 washes in 1% acetic acid, they are left to dry then the dye fixed by the proteins is dissolved under basic conditions with 100 μl 10 mM cold Tris and the solution is read using a spectrophotometer at 550 nm.
(§5) Percentage cell growth is calculated as the optical density of treated samples compared to the optical density of controls (untreated cells).

HT29/Mit cells [3] = assay: Antiproliferative activity, 72 h treatment, SRB assay, HT29/Mit resistant line; format: cell-based, human; conditions: Homo sapiens
Procedure: as §1, §2, §3, §4, §5

HT29/Mit cells [4] = assay: Co-treatment with topotecan, HT29/Mit resistant cells (Combination Index according to Kern); format: cell-based, human; conditions: HT29/Mit cells
Procedure: as §3, §4, §5
(§6) The Combination Index (C.I.) was determined according to Kern's method, 1988 (who continued from Drewinko B, 1976) (Kem D. H., Cancer Res. 48, 117-121, 1988; Drewinko B., Cancer Biochem. Biophys. 1, 187-195, 1976) by means of the following formula: […], where SFa and SFb are the fractions of cells surviving to treatment with compound a and b, respectively; SFab is the fraction surviving to the combination of compounds a and b. If the result is =1, the interaction between the two compounds is additive; if it is >1, the interaction between the two compounds is synergistic; if it is <1, the interaction between the two compounds is antagonistic.

HT29 cells [5] = assay: Co-treatment with topotecan, HT29 cells (Combination Index according to Kern); format: cell-based, human; conditions: HT29 cells
Procedure: as §3, §4, §5, §6

HepG2 cells = assay: Antiproliferative activity, 48 h treatment, ATPlite luminescence assay, HepG2; format: cell-based, human; conditions: HepG2, 48 h treatment, read-out: Antiproliferative activity (IC50 ± S.D.) HepG2 48 h treatment
Procedure: HepG2: maintained in EMEM medium+10% FCS.
2.3 Scheme of the Antiproliferative Activity Experiment (Treatment Time: 48 Hours)
The cells (concentration: 30,000 cells/ml) are seeded in 90 μl of the respective culture media in 96-well plates. 24 hours after seeding, an aliquot (10 μl) of the drug at the various concentrations is added (for each concentration there are 3 replicates). After 48 hours of treatment the antiproliferative effect is evaluated with a luminescence assay (Perkin Elmer Life Sciences ATPlite):
50 μl of a lysis solution are added to each well followed by an equal volume of a solution containing luciferase and D-luciferin. The ATP present in all the metabolically active cells brings about the transformation reaction of D-luciferin, catalysed by luciferase, to produce a luminescent signal as described in the following scheme: ATP+D-luciferin+O2→Oxyluciferin+AMP+PP1+CO2+Light
The luminescence produced (expressed in counts per second, CPS) is measured by means of a microplate scintillation analyzer (Perkin Elmer Life Sciences Top Count).
Percentage inhibition of luminescence in the treated cells compared to the control is calculated; concentration-response curves are then analysed using Grafit v.5.0.

[6] = system: HT29/Mit human colon carcinoma xenografts; assay: HT29/Mit human colon carcinoma xenograft, antitumor activity; format: in vivo, athymic Swiss nude mice
Source text: 1.1 Model of HT29/Mit human colon carcinoma xenografts-Antitumor activity Female athymic Swiss nude mice (8-10 weeks old) (Charles River, Calco, Italy) were used for the experiments. The animals were maintained at constant temperature and humidity, and were allowed to eat and drink freely. The experimental protocol was approved by the Ethics Committee for Animal Experimentation of the Istituto Nazionale Tumori of Milan. The antitumour effectiveness of the compounds of the invention under discussion was tested on athymic mouse models implanted with HT29 and/or HT29/Mit tumour cells: this latter variety is highly resistant to topotecan treatment. The tumour cells were implanted in vivo via subcutaneous injection of 10^7 cells taken from in vitro cultures. Randomized groups of five mice with bilateral subcutaneous tumours were used for the experiment. Topotecan or other known antitumour agents (dissolved in distilled water or an appropriate solvent) and the compounds of the invention (dissolved in Cremophor EL: ethanol: saline solution in the proportions 5:5:90, or in an appropriate solvent) were administered orally from the third day, alone or in combination, in agreement with a treatment scheme selected in an appropriate manner depending on the type of compound to be studied. The weight (or volume) of the tumour in treated mice compared to controls is represented graphically on the y-axis against time (x-axis).

[7] = Homo sapiens, HT-29, HT29, after 72 hours of treatment, range stated for the group, read-out: IC50 values in the sensitive line
[8] = Homo sapiens, HT-29, 72 h treatment, read-out: Antiproliferative activity (IC50 ± S.D.) HT-29 72 h treatment
[9] = HT-29, HT29/Mit, after 72 hours of treatment, range stated for the group, read-out: IC50 values in the resistant line
[10] = HT-29/Mit resistant line, 72 h treatment, read-out: Antiproliferative activity (IC50 ± S.D.) HT-29/Mit

Chain of Vacuolar ATPase in bovine chromaffin cells membranes (BCG) (P23956 whole entry, looked up): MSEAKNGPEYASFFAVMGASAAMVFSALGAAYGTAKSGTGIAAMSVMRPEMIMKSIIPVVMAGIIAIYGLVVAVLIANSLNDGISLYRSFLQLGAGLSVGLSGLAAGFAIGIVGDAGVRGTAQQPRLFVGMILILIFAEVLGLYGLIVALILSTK
Chain of Vacuolar ATPase in bovine chromaffin cells membranes (BCG) (Q29466 whole entry, looked up): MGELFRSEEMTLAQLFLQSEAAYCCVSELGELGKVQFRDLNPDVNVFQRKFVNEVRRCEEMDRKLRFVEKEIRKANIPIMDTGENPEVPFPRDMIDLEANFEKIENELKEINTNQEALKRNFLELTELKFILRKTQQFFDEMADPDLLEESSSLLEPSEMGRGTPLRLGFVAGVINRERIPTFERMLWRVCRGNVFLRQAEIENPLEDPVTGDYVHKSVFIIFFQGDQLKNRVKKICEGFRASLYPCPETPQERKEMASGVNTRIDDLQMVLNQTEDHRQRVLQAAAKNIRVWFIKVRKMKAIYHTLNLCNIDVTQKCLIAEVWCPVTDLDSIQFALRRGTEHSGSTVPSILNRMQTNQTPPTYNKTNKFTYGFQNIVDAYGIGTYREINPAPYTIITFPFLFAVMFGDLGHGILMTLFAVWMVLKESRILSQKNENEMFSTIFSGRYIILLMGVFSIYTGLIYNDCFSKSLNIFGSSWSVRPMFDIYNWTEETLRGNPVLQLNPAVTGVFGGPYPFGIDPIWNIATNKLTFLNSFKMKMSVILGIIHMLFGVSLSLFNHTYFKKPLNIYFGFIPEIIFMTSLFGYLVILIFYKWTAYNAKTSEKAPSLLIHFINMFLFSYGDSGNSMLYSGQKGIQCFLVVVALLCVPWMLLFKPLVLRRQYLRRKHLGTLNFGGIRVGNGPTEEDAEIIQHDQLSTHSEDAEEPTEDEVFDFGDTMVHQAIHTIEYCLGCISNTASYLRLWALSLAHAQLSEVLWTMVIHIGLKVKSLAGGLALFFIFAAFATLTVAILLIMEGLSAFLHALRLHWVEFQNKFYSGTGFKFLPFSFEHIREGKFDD

## COc1ccc(-c2c(-c3nnco3)[nH]c3cc(OC)c(OC)cc23)cc1 [Example 26, 5,6-Dimethoxy-3-(4-methoxyphenyl)-2-[1,3,4]oxadiazol-2-yl-1H-indole]
[1]
  IC50: 0.71 µM
HT29 cells [2]; [7]
  IC50: 5 to 42 µM
HT29 cells [2]; [8]
  IC50: 40.3 µM
HT29/Mit cells [3]; [9]
  IC50: 0.1 to 3 µM
HT29/Mit cells [3]; [10]
  IC50: 2.7 µM
HT29/Mit cells [4]
  effect in combination with topotecan: synergistic effects
HT29 cells [5]
  effect in combination with topotecan: synergistic effects

## COc1ccc(-c2c(C#N)[nH]c3cc(OC)c(OC)cc23)cc1 [Example 17, 5,6-dimethoxy-3-(4-methoxyphenyl)-1H-indole-2-carbonitrile]
[1]
  IC50: 0.273 µM
HT29 cells [2]; [8]
  IC50: 4.9 ± 0.5 µM
HT29/Mit cells [3]; [10]
  IC50: 2.5 µM

## N.N.[Cl][Pt][Cl] [Cisplatin, reference compound]
HepG2 cells
  IC50: > 25 µM
HT29 cells [2]; HT-29, 72 h treatment, read-out: Antiproliferative activity (IC50 ± S.D.) HT-29 72 h treatment
  IC50: 6.8 µM

## COc1ccc(-c2c(-c3ncn[nH]3)[nH]c3cc(OC)c(OC)cc23)cc1 [Example 23, 5,6-Dimethoxy-3-(4-methoxyphenyl)-2-(2H-[1,2,4]triazol-3-yl)-1H-indole]
[1]
  IC50: 0.47 µM
HT29 cells [2]; [7]
  IC50: 5 to 42 µM
HT29 cells [2]; [8]
  IC50: 41.9 µM
HT29/Mit cells [3]; [9]
  IC50: 0.1 to 3 µM
HT29/Mit cells [3]; [10]
  IC50: 2.3 µM
HT29/Mit cells [4]
  effect in combination with topotecan: synergistic effects
HT29 cells [5]
  effect in combination with topotecan: synergistic effects

## COc1ccc(-c2c(C#N)n(CCN(C)C)c3cc(OC)c(OC)cc23)cc1 [Example 18, 1-(2-Dimethylaminoethyl)-5,6-dimethoxy-3-(4-methoxyphenyl)-1H-indole-2-carbonitrile hydrochloride]
[1]
  IC50: 0.567 µM
HT29 cells [2]; [7]
  IC50: 5 to 42 µM
HT29 cells [2]; [8]
  IC50: 16.7 µM
HT29/Mit cells [3]; [9]
  IC50: 0.1 to 3 µM
HT29/Mit cells [3]; [10]
  IC50: 0.15 µM

## COC(=O)c1[nH]c2cc(OC)c(OC)cc2c1-c1ccc(OC)c(OC)c1 [Example 2, -3-(3,4-Dimethoxyphenyl)-5,6-dimethoxy-1H-indole-2-carboxylic acid methyl ester]
HepG2 cells; Homo sapiens
  IC50: 25.5 ± 4.5 µM
HT29 cells [2]; [8]
  IC50: 35.2 ± 5.2 µM
HT29/Mit cells [3]; [10]
  IC50: 15.2 ± 0.3 µM

## CCOC(=O)c1[nH]c2cc(OC)c(OC)cc2c1-c1ccccc1 [Example 4, 5,6-Dimethoxy-3-phenyl-1H-indole-2-carboxylic acid ethyl ester]
[1]
  IC50: 0.35 µM
HT29 cells [2]; [7]
  IC50: 5 to 42 µM
HT29 cells [2]; [8]
  IC50: 37.3 µM
HT29/Mit cells [3]; [9]
  IC50: 0.1 to 3 µM
HT29/Mit cells [3]; [10]
  IC50: < 0.1 µM

## COC(=O)c1[nH]c2cc(OC)c(OC)cc2c1-c1ccccc1 [Example 3, 5,6-Dimethoxy-3-phenyl-1H-indole-2-carboxylic acid methyl ester]
[1]
  IC50: 0.628 µM
HT29 cells [2]; [7]
  IC50: 5 to 42 µM
HT29 cells [2]; [8]
  IC50: 37.3 µM
HT29/Mit cells [3]; [9]
  IC50: 0.1 to 3 µM
HT29/Mit cells [3]; [10]
  IC50: 0.15 µM

## COc1ccc(-c2c3n(c4cc(OC)c(OC)cc24)CCNC3=O)cc1 [Example 27, 7,8-Dimethoxy-10-(4-methoxyphenyl)-3,4-dihydro-2H-pyrazino[1,2-a]indol-1-one]
[1]
  IC50: 0.248 µM
HT29 cells [2]; [8]
  IC50: 5.2 µM
HT29/Mit cells [3]; [10]
  IC50: 2.9 µM

## COC(=O)c1c(-c2ccc(OC)cc2)c2cc(OC)c(OC)cc2n1CCO [Example 12, 1-(2-Hydroxyethyl)-5,6-dimethoxy-3-(4-methoxyphenyl)-1H-indole-2-carboxylic acid methyl ester]
[1]
  IC50: 0.247 µM
HT29 cells [2]; [7]
  IC50: 5 to 42 µM
HT29 cells [2]; [8]
  IC50: 4.6 µM
HT29/Mit cells [3]; [9]
  IC50: 0.1 to 3 µM
HT29/Mit cells [3]; [10]
  IC50: 0.66 ± 0.3 µM
HT29/Mit cells [4]
  effect in combination with topotecan: synergistic effects
HT29 cells [5]
  effect in combination with topotecan: synergistic effects

## COc1ccc(-c2c3n(c4cc(OC)c(OC)cc24)CCNC3)cc1 [Example 28, 7,8-Dimethoxy-10-(4-methoxyphenyl)-1,2,3,4-tetrahydro-pyrazino[1,2-a]indole hydrochloride]
[1]
  IC50: 1.27 µM
HT29 cells [2]; [7]
  IC50: 5 to 42 µM
HT29 cells [2]; [8]
  IC50: 37.3 µM
HT29/Mit cells [3]; [9]
  IC50: 0.1 to 3 µM
HT29/Mit cells [3]; [10]
  IC50: 0.53 µM

## CC[C@@]1(O)C(=O)OCc2c1cc1n(c2=O)Cc2cc3c(CN(C)C)c(O)ccc3nc2-1 [Topotecan, reference compound]
[6]; 1 mg/kg p.o.
  tumor growth inhibition: 62%
[6]; 2 mg/kg p.o.
  tumor growth inhibition: 80%
HT29 cells [2]; [8]
  IC50: 0.07 ± 0.01 µM
HT29/Mit cells [3]; [10]
  IC50: 50.6 µM
